# From PMC11358582, “Discovery of a potential bladder cancer inhibitor CHNQD-01281 by regulating EGFR and promoting infiltration of cytotoxic T cells” (Marine Life Science & Technology, 2024)
# Tests used:
# [1] = system: human hepatocyte cell line L-02; assay: MTT cell proliferation assay; format: cell-based; conditions: L-02, MTT
# Protocol: Human tumor cell lines Eca-109, BEL-7402, BxPC-3, HCT-116, HT-29, T24, HCT-8, SGC-7901, DLD-1, TE-1, BT-549, MGC-803 and human hepatocyte cell line L-02 were cultured in Roswell Park Memorial Institute (RPMI) 1640. HuH-7 and SW-480 were cultured in Dulbecco’s modified Eagle’s medium (DMEM). J82, HepG2, Hela, U87 were cultured in Minimum Essential Medium (MEM). Murine bladder cancer cell line, MB49, was cultured in DMEM. The above-mentioned culture medium was provided by GIBCO (Grand Island, USA), contained 10% fetal bovine serum (PAN, Germany), 10 mg/mL of streptomycin, and 10 kU/mL penicillin (Beyotime, China).
# Cells were seeded in 96-well plates and incubated with indicated concentrations of CHNQD-01281 for indicated periods. Next, medium was discarded and MTT (5 mg/mL) was added to each well. The cells were incubated at 37 °C for another 4 h. After that, supernatant was discarded, and DMSO was added and incubated at 37 °C for 15 min. Finally, absorbance was measured at 570 nm (Molecular Devices, USA).
# Thus, the bladder cancer cell lines J82 and T24 were further investigated and treated by CHNQD-01281 under gradient concentrations (0.031−1.00 µmol/L) and times (24, 72 and 120 h) to measure proliferation activities (Fig. 2B). However, the inhibition of T24 or J82 cell lines by CHNQD-01281 was less than 50% even at the highest concentration of 1 µmol/L for 24 h. […] Therefore, CHNQD-01281 has a higher selectivity index compared to BFA.
# [2] = system: J82 cell line; assay: Colony formation assay; format: cell-based; conditions: Homo sapiens, 288 h, 12 days, read-out: inhibition rate on colony formation
# Protocol: (§1) T24 and J82 cell lines were seeded in 6-well plates at 500 cells/well. The cells were cultured overnight in medium. Compound CHNQD-01281 was added according to the concentration gradient, and the cells were placed in a 37 °C cell incubator containing 5% CO2 for 12 days. The cells were then fixed with 4% paraformaldehyde for 15 min and stained with crystal violet for 30 min. After that, pictures were taken and colony numbers were counted. The clone formation rate relative to the solvent control group was calculated.
# (§2) Cell proliferation ability was also detected by colony formation assay (Kabakov et al. [2018]), and the results are shown in Fig. 3A−B. CHNQD-01281 was applied for 12 days to detect long-term proliferation inhibition of T24 and J82 cell lines.
# [3] = system: T24 cell line; assay: Colony formation assay; format: cell-based; conditions: Homo sapiens, T-24, 288 h, 12 days, read-out: inhibition rate on colony formation
# Protocol: as §1, §2
# [4] = system: J82 cell line; assay: Wound healing assay (migration); format: cell-based, human; conditions: J82, 0.16 µmol/L, 24 h
# Protocol: (§3) Fig. 3 Effects of CHNQD-01281 on colony formation and migration of T24 and J82 cell lines. A T24 and J82 cell lines were cultured for 12 days with varying concentrations of CHNQD-01281 (0−0.16 μmol/L) and colonies were fixed and dyed with 0.1% crystal violet. B The relative colony numbers are shown. C Scratches of T24 and J82 cell colonies were generated with pipette tips (200 μL). After 24 h of incubation with 0−0.16 μmol/L CHNQD-01281, representative images were captured. D Histograms display the healed rate. Data are represented as the mean ± SD of three independent experiments. **P < 0.01, ***P < 0.001 and ****P < 0.0001 versus the 0 μmol/L group
# (§4) Metastasis and invasiveness are important indications for progression of bladder cancer. […] At the concentration of 0.16 µmol/L, the healed rate of T24 and J82 was 21% and 29%, respectively.
# [5] = system: T24 cell line; assay: Wound healing assay (migration); format: cell-based, human; conditions: T24, 0.16 µmol/L, 24 h
# Protocol: as §3, §4
# [6] = system: EGFR; assay: Western blot of EGFR expression in J82 cells; format: cell-based, human; conditions: J82, 0.16 µmol/L, versus control
# Protocol: (§5) T24 and J82 cell lines were lysed in protein lysis buffer, which included phosphatase inhibitors and a cocktail of protease inhibitors. A BCA kit (SparkJade, China) was used to determine the total protein concentration. After protein denaturation, SDS-PAGE electrophoresis was performed and the protein transferred from the gel to a PVDF membrane (Millipore, USA). Then primary antibodies against cleaved caspases-3, cleaved PARP, AKT, phosphorylated AKT, ERK1/2, phosphorylated ERK1/2, EGFR, mTOR, phosphorylated mTOR and Tubulin (CST, USA) were diluted at 1:1000 at 4 °C overnight. The membranes were then washed and incubated with secondary antibodies dissolved in 5% nonfat milk. A chemiluminescence imaging system was used to detect the signals (Tanon, China).
# (§6) EGFR is overexpressed in malignant urothelial cells, which is associated with the deterioration, invasiveness and metastasis of tumors. It is a potential therapeutic target for bladder carcinoma. Therefore, we examined the expression of EGFR and its downstream proteins after treating bladder cancer cells with CHNQD-01281 (Supplementary Fig. S11). […] Taken together, CHNQD-01281 inhibited the proliferation of bladder cancer cells and induced apoptosis through EGFR/PI3K/AKT and EGFR/ERK pathways to exert antitumor effects.
# [7] = system: p-AKT/AKT; assay: Western blot of EGFR downstream proteins; format: cell-based, human; conditions: 0.16 µmol/L
# Protocol: as §5, §6
# [8] = system: p-ERK/ERK; assay: Western blot of EGFR downstream proteins; format: cell-based, human; conditions: 0.16 µmol/L
# Protocol: as §5, §6
# [9] = system: p-mTOR/mTOR; assay: Western blot of EGFR downstream proteins; format: cell-based, human; conditions: 0.16 µmol/L
# Protocol: as §5, §6
# [10] = Single-dose safety profile, HE staining of main organs; format: in vivo, C57BL/6 mice; conditions: single dose 100 mg/kg, i.p.
# Protocol: (§7) To further investigate the safety profile of CHNQD-01281 in vivo, the HE staining of the heart, liver, spleen, lung, kidney and duodenum of C57 mice were analyzed after the single dose of CHNQD-01281 (100 mg/kg, i.p.). […] The distribution of CHNQD-01281 in tumor and main organs of C57BL/6 mice was then analyzed.
# (§8) Fig. S14. Safety profile and tissue distribution of CHNQD-01281 in vivo. A Representative H&E staining images (scale bar: 50 μm) of main organs from vehicle and CHNQD-01281 (100 mg/kg, ip.) treated C57BL/6 mice (n = 3). B Bodyweight evaluation of mouse after treatment with vehicle and CHNQD-01281. C Tissue distribution of CHNQD-01281 in C57BL/6 mice (n = 3).
# [11] = Tissue distribution in tumor and main organs; format: in vivo, C57BL/6 mice; conditions: tumor, heart, duodenum and spleen
# Protocol: as §7, §8
smiles,measurement,setting,value
"C[C@H]1CCC/C=C/[C@@H]2C[C@H](O)C[C@H]2[C@H](OC(=O)/C=C/c2cccnc2)/C=C/C(=O)O1 [CHNQD-01281, Brefeldin A 4-O-3-(pyridin-3-yl) acrylate]",IC90,[1],2.52 µM
same,IC50,[1]; 72 h,1.16 µM
same,inhibition at 0.04 µM,"[2]; J82, 0.04 µmol/L",25.1%
same,inhibition at 0.08 µM,"[2]; J82, 0.08 µmol/L",58.3%
same,inhibition at 0.16 µM,"[2]; J82, 0.16 µmol/L",85.9%
same,inhibition at 0.04 µM,"[3]; T24, 0.04 µmol/L",17%
same,inhibition at 0.08 µM,"[3]; T24, 0.08 µmol/L",52.5%
same,inhibition at 0.16 µM,"[3]; T24, 0.16 µmol/L",95.5%
same,healed rate,[4],29%
same,healed rate,[5],21%
same,maximum down-regulation of EGFR expression,[6],87.61%
same,decrease of p-AKT/AKT expression level,[7],99.96%
same,decrease of p-ERK/ERK expression level,[8],96.95%
same,decrease of p-mTOR/mTOR expression level,[9],60.36%
same,"HE staining of heart, liver, spleen, lung, kidney and duodenum",[10],no obvious abnormalities in cell and tissue morphology
same,time of rapid concentration elimination,[11],≤ 1 h
